These are literature values, as cited in US20260041141A1, “AEROSOL-GENERATING ARTICLE WITH AN ISOLATED AVERSIVE COMPONENT” (PHILIP MORRIS PRODUCTS S.A., priority 2022, published 2026).

Counter-ions that a name gives are not always drawn.

For this data set the following is noted: reciprocal of the dilution that still has a bitter taste; quinine hydrochloride reference set at 200,000.
Turning to `CC1=C[C@H]2[C@H]3[C@H](C(C)=C4[C@H]5OC(=O)[C@@H](C)[C@@H]5CC[C@](C)(O)[C@@H]43)[C@@]13[C@@H]2[C@@](C)(O)CC[C@H]1[C@H](C)C(=O)O[C@@H]13` [Absinthin], the Bitterness value was 3,000,000.
For `C[C@@]12C[C@@H](c3ccoc3)OC(=O)[C@@H]1CC[C@]1(C)[C@H]2[C@@H]2C=C[C@@]1(O)C(=O)O2` [Columbin], the Bitterness value is 60,000,000.
Regarding `COC1=C[C@@H](C)[C@@H]2C[C@H]3OC(=O)C[C@H]4C(C)=C(OC)C(=O)[C@H]([C@@]2(C)C1=O)[C@@]34C` [Quassin], the Bitterness value is on record as 13,000,000.
With `C=C[C@H]1C[N@@]2CC[C@H]1C[C@H]2[C@H](O)c1ccnc2ccc(OC)cc12` [Quinine hydrochloride], the Bitterness value is given as 200,000.
As to Amarogentin, the Bitterness value is reported as 58,000,000.
